Test results from patent US8148095B2, “Methods for predicting psychotropic drugs which elicit weight gain” (The Johns Hopkins University, priority 2006, dated 2012).
Read-outs that look alike come from different tables or passages of the source.

Legend:
hypothalamic AMPK = test: Phospho-AMPK in hypothalamic slices by Western blotting; format: cell-based, mice; conditions: 30 min; for levels of phospho-AMPK: 500 nM drug; for effect on hypothalamic phospho-AMPK: various concentrations
Text: FIGS. 1A-1F. AAPDs activate AMPK in hypothalamic slices.
The slices were dispersed in artificial cerebrospinal fluid buffer.

histamine H1 receptors = target: T1, histamine H1 receptors (Rattus norvegicus, UniProt P31390); test: Histamine H1 receptor binding, [3H]mepyramine displacement in rat brain membranes; conditions: 12 concentrations 30 pM to 10 μM, means of 3 determinations
T1 construct: from tissue; host or cells: rat forebrain membranes
Experimental: Receptor binding was assayed using rat brain membranes incubated with [^3H]mepyramine and 12 concentrations of drugs ranging from 30 pM to 10 μM in triplicate. […] Hypothalamic Slices
Briefly, rats were killed by decapitation and the forebrains removed. Brains were homogenized in 30 vol of Na-K phosphate buffer, pH 7.5, and centrifuged at 48,000×g for 10 min. The tissue was resuspended in buffer and re-centrifuged for an additional 3 times. Tissue was resuspended in buffer at 15 mg/ml.
Tissue (0.2 ml) was added to tubes containing 25 μl of drug and 25 μl of [3H]mepyramine (30 nM). Non-specific binding was determined in the presence of 1 μM triprolidine.

phospho-AMPK = conditions: ziprasidone 3 mg/kg i.p., 3 h
Experimental: Immunohistochemistry was performed with an antibody specific for phospho-AMPK. (FIG. 4D) Quantification of immunohistochemistry. Bars represent the mean±SE of five independent slides. (*p<0.005, **p<0.001 Student's t-test, n=5)
C57BL/6 mice or HR1−/− mice (8-10 weeks) were perfused with 4% paraformaldehyde maintained at 37° C. Organs were post-fixed 2 h at room temperature and cryoprotected overnight at 4° C. (30% sucrose in PBS). Free-floating sections (45 μm) were quenched with 3% H2O2 in water for 10 min at room temperature, washed in TBS-T (16 mM Tris pH 7.4, 140 mM sodium chloride, and 0.1% tween-20), and antigen retrieved for 30 min in a 70° C. water bath (10 mM sodium citrate in TBS-T). Sections were blocked (5% NGS in TBS-T) for 1 h at room temperature and incubated with a mouse anti-phospho-AMPKα antibody (Cell Signaling, Danvers, Mass.) diluted 1:200 into the blocking solution overnight at 4° C. Subsequent washes were conducted in TBST, and labeling was visualized with the Vectastain Elite ABC kit (Vector Laboratories, Burlingame, Calif.). Images were quantified with AlphaEaseFC program.

AMPK = test: Phospho-AMPK in tissues of intact mice by Western blotting; format: in vivo; conditions: for stimulation of hypothalamic phospho-AMPK in intact animals: triprolidine 3 mg/kg i.p., 3 h
Experimental: (§1) FIGS. 2A-2D. AAPDs activate AMPK in intact animals. […] Hypothalami were removed and tissue lysates analyzed for phospho-AMPK or α2-AMPK activity. […] Different parts of brain were isolated and α2-AMPK activity was assayed. Bars represent the mean±SE of three independent lysates performed in triplicate. (* Student's t-test, n=5)
FIGS. 5A-5F. […] Cerebellum and liver were removed and phosphorylated AMPK (AMPK-P) detected by western blotting. Each lane represents tissue from individual mouse. […] Hypothalamus, cerebellum and liver were removed and phosphorylated AMPK (AMPK-P) detected by western blotting. Each lane represents a tissue from individual mouse. […] Hypothalamus and cerebellum were removed and phosphorylated AMPK (AMPK-P) detected by western blotting. Each lane represents a tissue from individual mouse. […] Hypothalami were removed and phosphorylated AMPK (AMPK-P) detected by western blotting. Each lane represents a tissue from an individual mouse. […] Hypothalami were removed and AMPK activity monitored as described in Material and Methods. Bars represent the mean±SE of three independent lysates performed in triplicate.
(§2) Experiments were done at age 8-10 weeks. All drugs were administered by i.p. injection. […] Procedures were approved by guidelines of the Johns Hopkins University School of Medicine Institutional Animal Care and Use Committee.
All drugs were purchased from Toronto Research Chemicals Inc. (Toronto, Canada). […] The drug was diluted with 8.5 ml saline solution, and the appropriate doses were administrated to mice. For control mice, the same solution was injected without a drug. For in vitro assays, drugs were dissolved in DMSO.

α2-AMPK = α2-AMPK activity in tissue lysates of intact mice; format: in vivo; conditions: leptin 3 mg/kg
Experimental: as §1, §2

T1 sequence (P31390 whole entry): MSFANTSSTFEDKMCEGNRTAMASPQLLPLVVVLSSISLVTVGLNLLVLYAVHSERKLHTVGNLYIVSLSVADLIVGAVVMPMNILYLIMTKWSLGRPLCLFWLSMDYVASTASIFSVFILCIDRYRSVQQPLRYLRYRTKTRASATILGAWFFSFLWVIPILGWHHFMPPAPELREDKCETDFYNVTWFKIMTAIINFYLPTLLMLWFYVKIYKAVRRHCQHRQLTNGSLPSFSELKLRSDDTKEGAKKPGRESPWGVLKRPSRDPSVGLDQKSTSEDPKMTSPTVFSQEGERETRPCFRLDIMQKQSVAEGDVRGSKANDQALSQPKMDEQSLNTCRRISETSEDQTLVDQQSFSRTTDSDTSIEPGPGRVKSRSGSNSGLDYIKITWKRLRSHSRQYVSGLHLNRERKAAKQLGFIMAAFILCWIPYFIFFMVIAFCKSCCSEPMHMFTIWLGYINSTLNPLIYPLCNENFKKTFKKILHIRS

O=C(CCCN1CCC(O)(c2ccc(Cl)cc2)CC1)c1ccc(F)cc1 [Haloperidol]
levels of phospho-AMPK (hypothalamic AMPK): fail to stimulate

NCCc1c[nH]cn1 [histamine]
effect of histamine on phospho-AMPK (hypothalamic AMPK; different concentrations of histamine): decreases

O=C1Cc2cc(CCN3CCN(c4nsc5ccccc45)CC3)c(Cl)cc2N1 [Ziprasidone]
IC50 (histamine H1 receptors): 150 nM
levels of phospho-AMPK (hypothalamic AMPK): fail to stimulate
phospho-AMPK in the paraventricular nucleus / hypothalamus (phospho-AMPK): fails to alter
phospho-AMPK in the paraventricular nucleus / hypothalamus (phospho-AMPK; listed as Ziprasodine): no effect

Cc1ccc(/C(=C\CN2CCCC2)c2ccccn2)cc1 [triprolidine]
stimulation of phospho-AMPK (hypothalamic AMPK; triprolidine 50 or 500 nM vs clozapine 200 nM): to the same extent as clozapine
stimulation of hypothalamic phospho-AMPK in intact animals (AMPK): to the same extent as clozapine
stimulation of hypothalamic phospho-AMPK in intact animals (AMPK; listed as Triprolidine): activates

insulin
effect on hypothalamic phospho-AMPK (hypothalamic AMPK): reductions

Cc1nc2n(c(=O)c1CCN1CCC(c3noc4cc(F)ccc34)CC1)CCCC2 [Risperidone]
levels of phospho-AMPK (hypothalamic AMPK): fail to stimulate

leptin
effect on hypothalamic phospho-AMPK (hypothalamic AMPK): reductions
hypothalamic phospho-AMPK (AMPK; intact mice, leptin 3 mg/kg): reduces
hypothalamic AMPK catalytic activity (α2-AMPK): reduces

O=C1CCc2ccc(OCCCCN3CCN(c4cccc(Cl)c4Cl)CC3)cc2N1 [Aripipirazole]
IC50 (histamine H1 receptors): > 3000 nM
levels of phospho-AMPK (hypothalamic AMPK): fail to stimulate
